Measurements as given in patent publication US9750242B2, “Nitrite salts as poisons in baits for omnivores” (priority 2007, dated 2017).
Where two headings read alike, the source gives them in different places.

How the values were obtained:
feral pigs [1] = details: for Mean peak Met hb: approximate peak
Description: The captive feral pig colony at Robert Wicks Pest Animal Research Centre (Queensland Department of Natural Resource, Mines and Water) was comprised of feral pigs harvested by commercial harvesters in the area surrounding Inglewood, Queensland. A variety of sexes, ages and sizes were drawn at random from the captive colony and used in these trials. Feral pigs were housed in the purpose built feral pig accommodation.
This trial occurred in January 2006. The trial design is set out in FIG. 5. Twenty-one fasted captive feral pigs were anaesthetised with ketamine (20 mgkg^−1) and xylazine (1.2 mgkg^−1) by intramuscular injection with a 16 gauge needle into the quadriceps muscle. […] The resulting liquid was then administered by oesophageal gavage to an individual feral pig. A number of sodium nitrate dosages were trialled on different groups of feral pigs. After administration, feral pigs were observed carefully for clinical signs and death. […] Each dose rate contained three feral pigs.
This was done on an identical manner to the placebo feral pigs.
Feral pigs were then sampled opportunistically at various times over the following minutes or hours. […] Feral pigs which recovered from anaesthetic quickly, or were large, were sampled less frequently than other feral pigs. All feral pigs were also blood sampled immediately after death (within 1 minute). The blood samples were used to assess Methaemoglobin levels (Met […] Hb). An automated radio-oximeter (model ABL520 supplied by Radiometer Copenhagen) was used for blood Met Hb analysis. The Met Hb data from each individual within a group was pooled to provide dose response curves for multiple feral pigs administered at a single dose rate. The feral pigs which received 135 mgkg^−1 were not blood sampled until after death. A post mortem examination was conducted on all feral pigs.
Serial Met Hb levels were pooled for each group of feral pigs receiving a single dose rate and plotted against time. Trend-lines were fitted to the data. Logarithmic functions were used for the three higher dose rates, while a polynomial trend line was fitted to the 90 mgkg^−1 feral pig group. […] This program makes few assumptions about data and consists of a range of univariate, multivariate and graphical routines for analysing matrices of samples. Specifically, ordination by multidimensional scaling (MDS) was used to visually differentiate feral pigs based on variables (time to death, peak Met haemoglobin levels, time to dyspnoea and time to vomiting). One factor was used, dose rate. Data was normalized and 30 random resets occurred. ANOSIM was used to determine whether significant differences between these variables were due to dose rate. SIMPER (a function of Primer) was used to determine dissimilarity between dose rates, or what dose rates were most dissimilar.

feral pigs [2] = assay: Bait delivery trial: sodium nitrite to feral pigs in food; type: in vivo, feral pig
Procedure: The trials were conducted in October 2005 and June 2006. Both trials were designed to test the hypothesis that SN would be lethal to feral pigs when they consumed the toxin freely in food. […] Before the toxin trial, each feral pig was pre-fed daily for 10 days with the bait substrate they were to receive during the toxin trial (bait or dry wheat). During the trial, six feral pigs acted as controls, receiving no toxin, but receiving bait substrate (carrier material). Three of these received wheat and three received the manufactured baits of the type described in Example 2. The remaining 18 feral pigs were divided into three groups of six animals. Three pigs in each group received 250 or 500 g (depending on body size and therefore total toxic dose to deliver) of wheat and the other three received one or two the baits (again, amount of toxin dependent). […] Feral pigs were observed every 15 minutes for 6 hours, then hourly for 6 hours, then at euthanasia 12 hours after clinical signs developed (if they remained alive). Each dose rate contained six animals divided evenly amongst two bait carrier materials. Six controls were used.

dingos = details: bait delivered 1080, captive trials; cited from earlier work
[3] = 44.8 kg male with profuse bleeding into the thorax
[4] = gavage, doses of 135 mgkg^-1 or above, nine feral pigs

## O=C([O-])[O-].[Na+].[Na+] [Sodium carbonate, sodium carbonate, reference compound]
Feral pigs [1]; 30 g sodium carbonate followed by 180 mgkg^-1 SN, gavage
  synergism with SN (Met Hb curves): did not appear to act as a synergist

## O=NO [SN, Sodium nitrite]
Common brushtail possum
  Approximate bait lethal dose: ~489 mg/kg
  Approximate gavage lethal dose: ~163 mg/kg
Common brushtail possum; body size 4 kg
  Approximate lethal SN dose: ~2.0 gm
Raccoon
  Approximate bait lethal dose: ~150 mg/kg
Raccoon; body size 3 kg
  Approximate lethal SN dose: ~0.75 gm
Mouse
  Approximate bait lethal dose: ~705 mg/kg
  Approximate gavage lethal dose: ~235 mg/kg
Mouse; body size 0.03 kg
  Approximate lethal SN dose: ~0.02 gm
Rat
  Approximate bait lethal dose: ~291 mg/kg
  Approximate gavage lethal dose: ~97 mg/kg
Rat; body size 0.1 kg
  Approximate lethal SN dose: ~0.03 gm
Northern brown bandicoot
  Approximate bait lethal dose: ~696 mg/kg
  Approximate gavage lethal dose: ~232 mg/kg
Northern brown bandicoot; body size 2 kg
  Approximate lethal SN dose: ~1.4 gm
Feral pigs [1]; [3]
  peak Met Hb level, individual pig: 90.1%
  time to death after gavage, individual pig: 47 min
Feral pigs [1]; 90 mgkg^-1 group
  post mortem abnormalities: no abnormalities were detected
Feral pigs [1]; all animals which died following nitrite ingestion
  post mortem abnormalities, only consistent sign: dark or chocolate coloured blood and subsequent discolouration of organs and tissues which are well vascularised
Feral pigs [1]; gavage 90 mg/kg, 14 hours post administration, two survivors
  Met Hb levels in surviving pigs: near zero
Feral pigs [1]; gavage 90 mgkg^-1
  deaths of animals dosed: one of three
  period of lethargy (lessened gradually): 4 to 6 h
Feral pigs [1]; gavage 90 mgkg^-1, 3 feral pigs
  Death/survival: 1/2
Feral pigs [1]; gavage 90 mgkg^-1, following blood sampling
  time to death of one animal after dosing: approximately 5 hours
Feral pigs [1]; gavage 90 mgkg^-1, three hours after intoxication
  vomiting: two of three animals
Feral pigs [1]; gavage 90 mgkg^-1, two from three animals assessed
  Mean peak Met hb: 55^3%
Feral pigs [1]; gavage 135 mgkg^-1
  Mean time to death: 115 ± 18 min
  Mean peak Met hb: 89 ± 6%
Feral pigs [1]; gavage 135 mgkg^-1, 3 feral pigs
  Death/survival: 3/0
Feral pigs [1]; gavage 180 mgkg^-1
  Mean time to death: 87 ± 16 min
  Mean peak Met hb: 83 ± 8%
Feral pigs [1]; gavage 180 mgkg^-1, 3 feral pigs
  Death/survival: 3/0
Feral pigs [1]; gavage 180 mgkg^-1 with Na2CO3
  Mean time to death: 52 ± 26 min
  Mean peak Met hb: 80 ± 15%
Feral pigs [1]; gavage 180 mgkg^-1 with Na2CO3 (30 g), 3 feral pigs
  Death/survival: 3/0
Feral pigs [1]; gavage >=135 mgkg^-1, close to time of death
  in-coordination, paddling and short convulsive seizures: two of nine animals
Feral pigs [1]; gavage >=135 mgkg^-1, most animals
  time to dyspnoea after gavage: 30 to 60 min
Feral pigs [1]; gavage >=135 mgkg^-1, nine animals
  vomiting: Seven animals vomited between 1-4 times
Feral pigs [1]; gavage, all feral pigs that were sampled
  effect on blood Met Hb values: rapid increases in blood Met Hb values
Feral pigs [1]; gavage, doses of 135 mgkg^-1 or above
  range of time to death: 42 to 130 min
Feral pigs [1]; [4]
  deaths: All nine feral pigs that received doses of 135 mgkg^−1 or above died
  mean time to death (S.D.): 106 ± 75 min
Feral pigs [1]; gavage, killed feral pigs
  mean peak Met Hb level in killed feral pigs: 82%
Feral pigs [2]; 135 mgkg^-1 in bait substrate, six animals
  deaths: none died
Feral pigs [2]; 270 mgkg^-1 consumed, five animals
  deaths: one of these died
Feral pigs [2]; 540 mgkg^-1 consumed in either bait substrate, 2 for each substrate
  deaths: 4/4
Feral pigs [2]; all animals
  mean time that clinical signs were displayed: 84 ± 41 min
Feral pigs [2]; all dead animals
  mean time to death (S.D.): 141 ± 49 min
Feral pigs [2]; animals receiving the full 540 mgkg^-1 dose
  mean time that clinical signs were displayed: 80 ± 51 min
Feral pigs [2]; animals that received the full 540 mgkg^-1 dose
  mean time to death (S.D.): 122 ± 49 min
Feral pigs [2]; approximately 400 mgkg^-1 in wheat (370 g of 500 g eaten)
  outcome of one animal with partial dose: still died
Pig
  Approximate bait lethal dose: ~310 mg/kg
  Approximate gavage lethal dose: ~103 mg/kg
Pig; body size 50 kg
  Approximate lethal SN dose: ~15.5 gm

## O=C(O)CF [Example 1080, sodium fluoroacetate]
dingos
  LD50 dose: 0.11 mg/kg
